Assay results published in patent US12186303B2, “Feed additive for cattle comprising n-acetyl-l-tryptophan as active ingredient” (CJ CHEILJEDANG CORPORATION, priority 2018, dated 2025).

Key:
[1] = tested on: Korean native steers; assay: Hematological analysis (VetScan HM2) under cold stress conditions; format: in vivo, Korean native cattle; set-up: MON / GRA / RBC / HGB / HCT / MCH / WBC / LYM: unit not given here; conditions: for GRA / HCT / HGB / LYM / MCH / MON / PLT / RBC / WBC: 0.1% NALT
Text: After grouping the animals by statistical analysis of initial body weights, the animals were bred in 1.0×1.5 m^2 individual pens during the experiment period. The feed was offered based on an amount of dry matter of daily total mixed ration (TMR) per head. After 7 days of an adaptation period for N-acetyl-L-tryptophan (NALT), a mixture of 0.1% N-acetyl-L-tryptophan (NALT) and the total mixed ration was fed to individual animals every morning at 8 a.m. for 6 weeks, and water was available ad libitum. Total amounts of L-tryptophan ingested by the control and NALT-treated group by feeding NALT were 7.37 g/day/head and 16.26 g/day/head, respectively. The experiment was performed such that the NALT-treated group ingested 8.89 g/day/head more L-tryptophan than that of the control.
(§1) Meanwhile, results of growth performance analysis (body weight and average feed intake) and genetic analysis of loin tissue were obtained by statistically comparing and analyzing significant differences between the control and the NALT-treated group, and results of hematological analysis were obtained via statistical comparison and analysis depending on NALT treatment, experiment period (days), and interaction (treatment×days). These numerical values were expressed as average values, and a significance test was performed at the 5% level using Student's t-test by using the JMP 5.0 software package (SAS Institute Inc., Cary, NC, USA).
Blood was collected from a jugular vein of each sentinel animal before offering the feed at the starting day of the experiment (week 0), the mid-point of the experiment (week 4), and the final day of the experiment (week 7) and added to a vacutainer (Becton Dickinson, Franklin Lakes, NJ, USA). Hematological analysis was conducted using a VetScan HM2 Hematology System (Abaxis, Union City, CA, USA).

[2] = tested on: Korean native steers; assay: Feed intake and drinking water intake according to NALT feeding under heat stress conditions; format: in vivo, Korean native cattle; conditions: for Drinking water intake / Feed intake: 0.1% NALT
Text: After grouping the animals by statistical analysis of initial body weights, the animals were bred in 1.0×1.5 m^2 individual pens during the experiment period. The feed was offered based on an amount of dry matter of daily total mixed ration (TMR) per head. After 7 days of an adaptation period for N-acetyl-L-tryptophan (NALT), a mixture of 0.1% N-acetyl-L-tryptophan (NALT) and the total mixed ration was fed to individual animals every morning at 8 a.m. for 6 weeks, and water was available ad libitum. Total amounts of L-tryptophan ingested by the control and the experimental group (NALT-treated group) by feeding NALT were 6.0 g/day/head and 18.2 g/day/head, respectively. The experiment was performed such that the NALT-treated group ingested 12.2 g/day/head more L-tryptophan than the control.
as §1, with “using a” for “using the”
Temperature (° C.) and relative humidity (%) were recorded every day during a one-week adaptation period and a 6-week experiment period using a portable temperature and humidity meter. Average temperature and average relative humidity of each week were calculated using the temperature and relative humidity recorded during the total experiment period. In addition, a temperature-humidity index (THI) was calculated using temperature and humidity as shown in the following equation, and heat stress state may be diagnosed using the THI as an index feature of a heat load. THI=(1.8×T+32)−[0.55−0.0055×RH)×(1.8×T−26.8)
Feed intake of each sentinel animal was calculated by measuring a total amount of feed offered and an amount left over every day, and drinking water intake thereof was calculated every day by measuring a total amount of drinking water offered and an amount left over. Also, since the amount of feed left over was measured in pen units, DMI/BW % was calculated using the equation DMI/BW %=1.2425+1.9218×NEm−0.7259×(NEm)^2 and corrected using actual data of the experiment to calculate data for each of the two heads included in each pen. Analysis results of changes in feed intake and drinking water intake of the control and the NALT-treated group are shown in Table 12. […] Based thereon, it may be interpreted that the feed intake of cattle fed with NALT increased compared with the control without having increased drinking water intake even under heat stress conditions.

All hematological indicators except for monocytes, compared with the control [1]: No statistically significant difference
Hematological indicator values relative to normal ranges [1]: within normal ranges
GRA ([1]; 0 wks): 3.01
HCT ([1]; 0 wks): 35.00
HGB ([1]; 0 wks): 13.60
LYM ([1]; 0 wks): 5.55
MCH ([1]; 0 wks): 12.83
MON ([1]; 0 wks): 0.10
PLT ([1]; 0 wks): 378.0
RBC ([1]; 0 wks): 10.70
WBC ([1]; 0 wks): 8.66
GRA ([1]; 4 wks): 2.09
HCT ([1]; 4 wks): 34.64
HGB ([1]; 4 wks): 14.20
LYM ([1]; 4 wks): 6.55
MCH ([1]; 4 wks): 13.80
MON ([1]; 4 wks): 0.06
PLT ([1]; 4 wks): 476.8
RBC ([1]; 4 wks): 10.34
WBC ([1]; 4 wks): 8.70
GRA ([1]; 7 wks): 3.29
HCT ([1]; 7 wks): 33.88
HGB ([1]; 7 wks): 13.68
LYM ([1]; 7 wks): 5.98
MCH ([1]; 7 wks): 13.70
MON ([1]; 7 wks): 0.08
PLT ([1]; 7 wks): 379.5
RBC ([1]; 7 wks): 10.08
WBC ([1]; 7 wks): 9.34
Structure (SMILES): CC(=O)N[C@@H](Cc1c[nH]c2ccccc12)C(=O)O [NALT, N-acetyl-L-tryptophan]
Drinking water intake ([2]; THIavg < 80): 35.3 kg
Feed intake ([2]; THIavg < 80): 13.7 kg
Drinking water intake ([2]; THIavg > 80): 44.6 kg
Feed intake ([2]; THIavg > 80): 13.5 kg
Feed intake compared to the control ([2]; THI of 80 or more): significantly increased
Average feed intake ([2]; entire experiment period): 13.62 kg/day
Average feed intake compared with the control ([2]; entire experiment period): no statistically significant difference
Drinking water intake compared with the control ([2]; regardless of THI conditions): statistically significant decrease
